Assays:
[1] = target: T1, hCAR1+A (Homo sapiens, UniProt Q14994, INS274A); experiment: HepG2 CYP2B6-2.2 kb reporter with hCAR1+A; assay type: cell-based; settings: 1, 5 and 10 µM, 24 h
T1 construct: expressed in transfected cells; host or cells: HepG2 (ATCC, HB-8065)
Excerpt: Activities of both firefly and renilla luciferases were detected using a Dual-Luciferase Kit (Promega).

[2] = Liver-to-body weight ratio after treatment; assay type: in vivo
Protocol: (§1) 12–15 week-old C57BL/6 J mice were obtained from Jackson Laboratories and were housed on a standard 12 h light/dark cycle. Nr1i3^−/− mice with C57BL/6 J background were obtained from David Moore’s lab (PMID: 11057673) at Baylor College of Medicine, and used at 13–26 weeks of age. Wild-type male, female and Nr1i3^−/− male mice were used in this study, due to known sex-specific CAR activities. Mice were housed in groups of 2–5 mice per cage on a standard 12 h light/dark cycle and fed with rodent chow diet (Inotiv, Teklad rodent diet 2918). Temperature was maintained at 21 °C with a range of 21–24 °C and humidity at 16–51%. National Institute of Health guidelines for the care and use of laboratory animals were followed with all experiments performed as directed by the Institutional Animal Care and Use Committee at the University of Illinois, Urbana-Champaign (UIUC, IACUC protocol: 22183). Mice were acclimatized to the UIUC mouse facility for 2 weeks prior to experiments. DIM and DIE were dissolved in 5% DMSO in corn oil and injected intraperitoneally at 25 mg/kg once daily for three days. After 4 h of the third injection, mice were sacrificed to collect serum, livers and intestines. TCPOBOP was dissolved in corn oil and injected intraperitoneally at 3 mg/kg once and the livers collected after 3 days for further studies. When used to block CAR activity, 100 mg/kg androstenol was injected intraperitoneally 15 min prior to the first DIM or DIE treatment. RNA from mice livers was isolated using TRIzol (Invitrogen) reagent using the manufacturer’s instructions. 3–5 µg of RNA was used to synthesize cDNA with random primers (NEBioLabs) and Maxima Reverse Transcriptase kits (Thermo Fisher Scientific). cDNA was further diluted, and 50 ng was used for SYBR green (Thermo Fisher Scientific) based qRT-PCR. Relative gene expression was calculated by the delta Ct method and normalized to 36b4 levels as loading controls. qPCR primers for gene expression analysis are listed in Supplementary Table 3.

[3] = tested on: mCAR target genes (cyp2b10, cyp3a11, sult2a1) in mouse liver; experiment: qPCR of mCAR target genes in mouse liver after intraperitoneal treatment; assay type: in vivo; settings: for cyp2b10 expression in liver, wild-type mice: 25 mg/kg i.p. once daily for three days; for sult2a1 expression in liver: WT or Nr1i3-/- mice; for cyp3a11 expression in liver: mouse liver, with or without And pre-treatment
Protocol: as §1

[4] = target: T2, hCAR LBD-SRC1 protein (Homo sapiens, UniProt Q14994); experiment: Fluorescence thermal shift assay (TSA); assay type: binding; settings: diindoles at 12.5 µM; APO Tm 51.5 °C; means of triplicates
T2 construct: The human CAR LBD (Lys^108 – Ser^352) was amplified by PCR from cDNA; HIS6; made in house; host or cells: E. coli BL21(DE3)
T2 sequence (Q14994 108-352): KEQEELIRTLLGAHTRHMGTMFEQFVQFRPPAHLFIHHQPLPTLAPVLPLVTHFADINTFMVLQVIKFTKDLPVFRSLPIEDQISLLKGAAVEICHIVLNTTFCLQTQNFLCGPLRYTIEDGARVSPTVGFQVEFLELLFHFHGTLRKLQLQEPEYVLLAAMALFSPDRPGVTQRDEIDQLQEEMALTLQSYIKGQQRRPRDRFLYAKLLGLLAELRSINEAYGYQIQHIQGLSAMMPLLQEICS
Protocol: Purified hCAR LBD-SRC1 protein was assayed in 137 mM NaCl, 2.7 mM KCl, 10 mM Na2HPO4, and 1.8 mM KH2PO4, 0.5% DMSO, pH 7.4, at a final concentration of 2.2 µM. SYPRO Orange was used at a final concentration of 10× (Invitrogen, S6650). Each sample was divided into three 25 µL replicates. Sample solutions were dispensed into 96-well optical reaction plates (Thermo Fisher Scientific, 4306737) and sealed with optical PCR plate sheets (Thermo Fisher Scientific, AB-1170). TSA experiments were carried out using a QuantStudio 12 K Flex Real Time PCR System (Applied Biosystems). The temperature was ramped up from 25 °C to 95 °C at a rate of 0.3 °C/min, and SYPRO orange fluorescence monitored. Raw fluorescence data and melting temperatures were determined using nonlinear regression curve fitting using GraphPad Prism 9.

[5] = Diindole levels in tissues of WT and Nr1i3-/- mice; assay type: in vivo
Protocol: as §1, with “TCPOBOP was dissolved in corn oil and injected intraperitoneally at 3 mg/kg once and the livers collected after 3 days for further studies. When used to block CAR activity, 100 mg/kg androstenol was injected intraperitoneally 15 min prior to the first DIM or DIE treatment. RNA from mice livers was isolated using TRIzol (Invitrogen) reagent using the manufacturer’s instructions. 3–5 µg of RNA was used to synthesize cDNA with random primers (NEBioLabs) and Maxima Reverse Transcriptase kits (Thermo Fisher Scientific). cDNA was further diluted, and 50 ng was used for SYBR green (Thermo Fisher Scientific) based qRT-PCR.” left out

[6] = target: T3, hCAR (Homo sapiens, UniProt Q14994); experiment: hCAR nuclear translocation in primary human hepatocytes (Ad/EYFP-hCAR); assay type: cell-based; settings: PHHs from two individuals; 10 µM, 8 h
T3 construct: expressed in transfected cells; host or cells: primary human hepatocytes infected with Ad/EYFP-hCAR
T3 sequence (Q14994 1-352): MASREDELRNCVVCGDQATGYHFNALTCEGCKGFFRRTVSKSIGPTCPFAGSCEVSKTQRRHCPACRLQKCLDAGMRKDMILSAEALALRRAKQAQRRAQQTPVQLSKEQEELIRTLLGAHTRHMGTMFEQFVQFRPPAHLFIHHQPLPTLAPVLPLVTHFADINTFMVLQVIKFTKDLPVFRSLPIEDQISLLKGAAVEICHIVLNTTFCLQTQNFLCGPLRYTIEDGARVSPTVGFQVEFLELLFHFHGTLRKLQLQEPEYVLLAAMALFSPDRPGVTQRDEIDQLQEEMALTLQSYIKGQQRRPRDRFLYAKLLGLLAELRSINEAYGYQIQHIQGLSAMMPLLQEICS
Protocol: 24 h after seeding at 0.25 × 10^6 cells/well in 24-well biocoat plate, PHHs were infected with 2 µL of adenoviral enhanced yellow fluorescent protein-tagged hCAR (Ad/EYFP-hCAR) followed by treatment with 0.1% DMSO, phenobarbital (PB) (1 mM), DIM (10 µM) or DIE (10 µM) for 8 h. Cells were washed with phosphate-buffered saline and fixed for 30 min with 4% formaldehyde at room temperature and then stained with 4,6-diamidine-2-phenylindole dihydrochloride for 30 min after washing three times with phosphate-buffered saline. The subcellular localization of hCAR and nuclei were visualized using a Nikon Eclipse Ti-E inverted fluorescence microscope (Nikon, Edgewood, NY) in YFP/FITC and DAPI fluorescence channels. Compounds were added to the plate in triplicate and results analyzed as detailed below with z-factors calculated as previously described.

[7] = tested on: cyp2b6, cyp3a4, sult2a1 mRNA in PHH; experiment: RT-qPCR of CAR target genes in primary human hepatocytes; assay type: cell-based; settings: two donors, 48 h
Protocol: PHH culture, RNA extraction and gene expression analyses were performed as described previously. Primer sequences for cyp2b6, cyp3a4, sult2a1, and glyceraldehyde-3-phosphate dehydrogenase (gapdh) are shown in Supplementary Table 3.

T1 sequence (Q14994 with tags, fused parts or gaps isoform Q14994-2 INS270A): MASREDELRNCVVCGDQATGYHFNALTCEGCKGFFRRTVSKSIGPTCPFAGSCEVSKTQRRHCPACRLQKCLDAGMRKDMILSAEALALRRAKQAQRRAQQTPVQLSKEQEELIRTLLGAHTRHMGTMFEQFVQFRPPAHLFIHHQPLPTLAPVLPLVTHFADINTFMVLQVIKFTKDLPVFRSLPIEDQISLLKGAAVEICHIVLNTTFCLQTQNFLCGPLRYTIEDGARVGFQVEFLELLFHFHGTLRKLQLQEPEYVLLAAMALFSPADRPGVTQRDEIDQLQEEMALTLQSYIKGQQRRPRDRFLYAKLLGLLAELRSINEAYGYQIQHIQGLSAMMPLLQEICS
T1 sequence (P19793 whole entry partner): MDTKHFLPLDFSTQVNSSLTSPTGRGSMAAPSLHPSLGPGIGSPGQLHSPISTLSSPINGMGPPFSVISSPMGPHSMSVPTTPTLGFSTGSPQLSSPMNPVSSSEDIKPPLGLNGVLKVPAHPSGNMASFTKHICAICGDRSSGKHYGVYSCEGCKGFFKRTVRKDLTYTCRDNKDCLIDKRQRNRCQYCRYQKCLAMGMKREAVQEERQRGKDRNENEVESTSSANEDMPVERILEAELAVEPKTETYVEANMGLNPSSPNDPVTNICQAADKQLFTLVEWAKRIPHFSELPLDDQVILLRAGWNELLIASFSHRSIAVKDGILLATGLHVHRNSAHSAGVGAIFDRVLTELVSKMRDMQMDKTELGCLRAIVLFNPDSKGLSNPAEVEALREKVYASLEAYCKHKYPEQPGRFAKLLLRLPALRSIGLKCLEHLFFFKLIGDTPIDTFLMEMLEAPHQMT

Structure (SMILES) | hCAR1+A activity (CYP2B6 reporter) [1] | liver weight / liver-to-body weight ratio ([2]; mouse, in vivo) | cyp2b10 expression in liver, wild-type mice [3] | sult2a1 expression in liver [3] | cyp3a11 expression in liver [3] | Tm [4] | compound levels in tissues of Nr1i3-/- versus WT mice ([5]; mouse, in vivo) | hCAR nuclear relocation [6] | cyp2b6 mRNA expression [7] | cyp3a4 mRNA expression (joint CAR/PXR target gene) [7] | sult2a1 mRNA expression (non-target gene) [7] | liver weight / liver-to-body weight ratio ([2]; post-treatment, compared to control) | compound levels in tissues of Nr1i3-/- versus WT mice ([5]; duodenum, jejunum, ileum, liver, male mice treated with diindoles)
c1ccc2c(Cc3c[nH]c4ccccc34)c[nH]c2c1 [DIM, diindolylmethane] | significantly boost hCAR1+A activity | no significant changes | robustly induced | did not show significant responses | did not affect | 57.1 °C | increased dramatically | efficiently promote hCAR nuclear relocation | selectively upregulated | more variable | no effects | – | –
CC(c1c[nH]c2ccccc12)c1c[nH]c2ccccc12 [DIE, 3,3’-diindolylethane] | significantly boost hCAR1+A activity | – | robustly induced | did not show significant responses | did not affect | 59.6 °C | – | efficiently promote hCAR nuclear relocation | selectively upregulated | more variable | no effects | no significant changes | increased dramatically

Reference: publication PMC10960024, “Diindoles produced from commensal microbiota metabolites function as endogenous CAR/Nr1i3 ligands” (Nature Communications, 2024)
